Laboratory results as given in the supplement of paper PMC10307832.

How the values were obtained:
Test in all cases: relative viability (nuclei count vs DMSO), 5 days (fraction); higher = more cells survive
[1] = compound: CN1CCC(CC1)OC2=CC(=C(C=C2)NC3=NC=C4C(=N3)N(C(=O)N4C)C5CCCC5)OC [AZ3146] + O=C(CCCCCCC(=O)Nc1ccccc1)NO [Vorinostat] (partner 1 µM)
Summary of the method: (§1)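 Lung cancer cell lines in 1536-well plates got either a single drug or a fixed anchor-drug dose together with five library-drug doses (not always all listed) in √10 steps, by pin tool, on the day after seeding. Nuclei were counted after 5 days, and relative viability is the treated-to-vehicle ratio of nuclei counts. Values are medians of duplicate plates.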

[2] = compound: CCOC(=O)CCNc1cc(N2CCc3ccccc3CC2)nc(-c2ccccn2)n1 [GSK-J4] + O=C(c1cc(Cc2n[nH]c(=O)c3ccccc23)ccc1F)N1CCN(C(=O)C2CC2)CC1 [Olaparib] (partner 8 µM)
Summary of the method: as §1

[3] = compound: CCOC(=O)CCNc1cc(N2CCc3ccccc3CC2)nc(-c2ccccn2)n1 [GSK-J4] + Nc1nc2[nH]cc(CCc3ccc(C(=O)N[C@@H](CCC(=O)O)C(=O)O)cc3)c2c(=O)[nH]1 [Pemetrexed] (partner 0.2 µM)
Summary of the method: as §1

[4] = compound: CN1CCC(CC1)OC2=CC(=C(C=C2)NC3=NC=C4C(=N3)N(C(=O)N4C)C5CCCC5)OC [AZ3146] + CS(=O)(=O)N1CCN(Cc2cc3nc(-c4cccc5[nH]ncc45)nc(N4CCOCC4)c3s2)CC1 [Pictilisib] (partner 1 µM)
Summary of the method: as §1

Cell Line	relative viability ([1]; first compound 0.08 µM)	relative viability ([1]; first compound 0.253 µM)	relative viability ([1]; first compound 0.8 µM)	relative viability ([1]; first compound 2.53 µM)	relative viability ([1]; first compound 8 µM)	relative viability ([2]; first compound 0.5 µM)	relative viability ([2]; first compound 1.581 µM)	relative viability ([2]; first compound 5 µM)	relative viability ([2]; first compound 15.81 µM)	relative viability ([2]; first compound 50 µM)	relative viability ([3]; first compound 0.5 µM)	relative viability ([3]; first compound 1.581 µM)	relative viability ([3]; first compound 5 µM)	relative viability ([3]; first compound 15.81 µM)	relative viability ([3]; first compound 50 µM)	relative viability ([4]; first compound 0.08 µM)	relative viability ([4]; first compound 0.253 µM)	relative viability ([4]; first compound 0.8 µM)	relative viability ([4]; first compound 2.53 µM)	relative viability ([4]; first compound 8 µM)
NCI-H1650	0.578	0.392	0.563	0.554	0.475	0.852	0.739	0.871	0.639	0.509	0.439	0.303	0.392	0.36	0.331	0.52	0.671	0.53	0.535	0.493
NCI-H1651	0.428	0.519	0.477	0.512	0.568	0.178	0.158	0.184	0.182	0.18	0.587	0.597	0.595	0.518	0.56	0.556	0.668	0.576	0.475	0.489
NCI-H1666	0.976	1.09	1.01	1.09	0.994	0.684	0.676	0.786	0.746	0.699	0.864	0.665	0.765	0.882	0.791	0.307	0.507	0.485	0.582	0.648
NCI-H1734	0.646	0.886	0.782	0.795	0.584	0.652	0.549	0.551	0.582	0.333	0.424	0.412	0.391	0.407	0.364	0.501	0.522	0.418	0.474	0.499
NCI-H1755	0.71	0.804	0.599	0.789	0.765	0.853	0.754	0.841	0.859	0.687	0.4	0.349	0.398	0.388	0.365	0.421	0.433	0.359	0.441	0.442
NCI-H1793	0.616	0.682	0.613	0.942	0.573	0.751	0.634	0.482	0.201	0.145	1.01	0.6	0.684	0.235	0.167	0.298	0.376	0.278	0.469	0.261
NCI-H1915	0.371	0.513	0.535	0.559	0.498	0.279	0.229	–	0.224	0.257	0.41	0.518	–	0.473	0.446	0.748	0.911	1.11	1	1.07
NCI-H1944	0.425	0.579	0.606	0.616	0.543	0.389	0.373	–	0.376	0.358	0.553	0.565	–	0.48	0.586	–	0.34	0.323	0.376	0.364
NCI-H1975	0.67	0.736	0.735	0.697	0.327	0.729	0.715	0.579	0.795	0.849	0.249	0.285	0.212	0.331	0.276	0.266	0.343	0.305	0.303	0.304
NCI-H1993	0.724	1.03	1.06	1.05	0.559	1.21	0.885	1.1	0.952	1.01	0.699	0.585	0.575	0.562	0.476	0.806	0.797	0.788	0.839	0.762
NCI-H2009	0.635	0.673	0.743	0.704	0.543	0.603	0.638	0.556	0.593	0.449	0.964	0.846	0.769	0.997	0.576	0.891	0.962	0.886	0.917	0.605
NCI-H2023	0.422	0.991	0.407	0.471	0.193	0.453	0.413	0.472	0.379	0.348	0.177	0.245	0.238	0.218	0.173	0.241	0.285	0.19	0.265	0.202
NCI-H2085	0.75	0.786	0.779	0.789	0.701	0.773	0.734	0.654	0.707	0.627	0.899	0.789	0.699	0.883	0.961	0.486	0.433	0.506	0.547	0.438
